In ChEMBL document CHEMBL1909557, “Oligopeptide cyclophilin inhibitors: a reassessment” (Eur J Med Chem, 2011):
Activity calls are given as the source filed them. No cut-off for these calls is given here. Peptide text beside a SMILES is read from it.

Key:
[1] = molecular target: Peptidyl-prolyl cis-trans isomerase A (Homo sapiens) (UniProt P62937); test: Binding affinity to human recombinant cyclophilin-A up to 25 uM by isothermal titration calorimetry assay
[2] = molecular target: Peptidyl-prolyl cis-trans isomerase A (Homo sapiens) (UniProt P62937); test: Inhibition of PPIase activity of human recombinant cyclophilin-A using succinyl-Ala-Ala-Pro-Phe-4-nitroanilide as substrate at 100 uM by protease coupled assay
[3] = molecular target: Peptidyl-prolyl cis-trans isomerase A (Homo sapiens) (UniProt P62937); test: Inhibition of PPIase activity of human recombinant cyclophilin-A using succinyl-Ala-Ala-Pro-Phe-4-nitroanilide as substrate at 100 uM pretreated for 3 hrs before substrate addition by spectrophotometry

Sequence of Peptidyl-prolyl cis-trans isomerase A (Homo sapiens) (P62937 whole entry, looked up): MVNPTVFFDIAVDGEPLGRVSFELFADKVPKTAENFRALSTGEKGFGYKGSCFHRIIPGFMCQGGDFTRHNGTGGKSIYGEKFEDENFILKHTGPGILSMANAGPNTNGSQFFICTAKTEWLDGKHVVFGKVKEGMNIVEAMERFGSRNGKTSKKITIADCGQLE

Activity [1]: inactive | inhibition [2]: inactive | inhibition [3]: inactive
Compound: N[C@@H](Cc1c[nH]c2ccccc12)C(=O)NCC(=O)N1CCC[C@H]1C(=O)O (H-Trp-Gly-Pro-OH)
